Results: PubChem BioAssay (NCI)
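A five-concentration, 48-hour dose response in 96-well plates underlies each endpoint, interpolated linearly between surrounding concentrations. The concentration for full growth arrest is given as TGI.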

Key:
Assay in all cases: NCI tumour cell line growth inhibition, 48 h
[1] = system: SNB-78 CNS
[2] = system: NCI-H23 lung
[3] = system: NCI-H460 lung
[4] = system: XF 498 CNS
[5] = system: A549 NSCLC
[6] = system: A498 renal
[7] = system: CAKI-1 renal
[8] = system: NCI/ADR-RES ovarian
[9] = system: SF-268 CNS
[10] = system: UACC-257 melanoma
[11] = system: RPMI-8226 leukemia
[12] = system: DMS 114 small cell lung
[13] = system: SF-539 CNS
[14] = system: P388 leukemia
[15] = system: OVCAR-5 ovarian
[16] = system: HL-60(TB) leukemia
[17] = system: LOX IMVI melanoma
[18] = system: IGROV1 ovarian
[19] = system: NCI-H226 lung
[20] = system: SNB-19 CNS
[21] = system: SK-OV-3 ovarian
[22] = system: SN12C renal
[23] = system: SW-620 colon
[24] = system: MOLT-4 leukemia
[25] = system: SNB-75 CNS
[26] = system: MALME-3M melanoma
[27] = system: UO-31 renal
[28] = system: DLD-1 colon
[29] = system: OVCAR-3 ovarian
[30] = system: K-562 leukemia
[31] = system: UACC-62 melanoma
[32] = system: SK-MEL-5 melanoma
[33] = system: SK-MEL-2 melanoma
[34] = system: KM20L2 colon
[35] = system: OVCAR-8 ovarian
[36] = system: OVCAR-4 ovarian
[37] = system: MCF7 breast
[38] = system: SF-295 CNS
[39] = system: HOP-18 NSCLC
[40] = system: HCT-15 colon
[41] = system: P388/ADR leukemia
[42] = system: COLO 205 colon
[43] = system: HOP-92 NSCLC
[44] = system: HT29 colon
[45] = system: EKVX NSCLC
[46] = system: CCRF-CEM leukemia
[47] = system: NCI-H522 lung
[48] = system: SK-MEL-28 melanoma
[49] = system: HCT-116 colon
[50] = system: SN12K1 renal
[51] = system: HCC-2998 colon
[52] = system: HOP-62 NSCLC
[53] = system: U251 CNS
[54] = system: RXF 393 renal
[55] = system: KM12 colon
[56] = system: DMS 273 small cell lung
[57] = system: M19-MEL melanoma

## COC(=O)[C@]1(c2ccc(N(C)C)cc2OC)C[C@@H]2CCCN(CCc3c1[nH]c1ccccc31)C2
[1]
  TGI: > 91.1 µM
[2]
  TGI: > 51.1 µM
[3]
  TGI: 33.7 µM
[4]
  TGI: 34.1 µM
[5]
  TGI: > 65.5 µM
[6]
  TGI: 47 µM
[7]
  TGI: > 100 µM
[8]
  TGI: 35.8 µM
[9]
  TGI: 71.2 µM
[10]
  TGI: 39.6 µM
[11]
  TGI: 63.2 µM
[12]
  TGI: 30.9 µM
[13]
  TGI: 36.8 µM
[14]
  TGI: 36 µM
[15]
  TGI: > 100 µM
[16]
  TGI: 27.3 µM
[17]
  TGI: > 62.3 µM
[18]
  TGI: 48 µM
[19]
  TGI: 37.6 µM
[20]
  TGI: > 100 µM
[21]
  TGI: > 61.4 µM
[22]
  TGI: 41 µM
[23]
  TGI: > 100 µM
[24]
  TGI: > 91.4 µM
[25]
  TGI: 22.3 µM
[26]
  TGI: 33.2 µM
[27]
  TGI: 33.2 µM
[28]
  TGI: > 64.1 µM
[29]
  TGI: 36.4 µM
[30]
  TGI: 37.7 µM
[31]
  TGI: 32.4 µM
[32]
  TGI: 31.4 µM
[33]
  TGI: 36.2 µM
[34]
  TGI: 32.5 µM
[35]
  TGI: 57.9 µM
[36]
  TGI: 28.2 µM
[37]
  TGI: 30.7 µM
[38]
  TGI: > 60.7 µM
[39]
  TGI: > 58.7 µM
[40]
  TGI: 46.6 µM
[41]
  TGI: 47.1 µM
[42]
  TGI: 27.3 µM
[43]
  TGI: 33.4 µM
[44]
  TGI: 32.8 µM
[45]
  TGI: 52 µM
[46]
  TGI: > 84.3 µM
[47]
  TGI: 21.8 µM
[48]
  TGI: 35.1 µM
[49]
  TGI: 55.5 µM
[50]
  TGI: 34.6 µM
[51]
  TGI: 29.8 µM
[52]
  TGI: > 84.9 µM
[53]
  TGI: 36 µM
[54]
  TGI: 37.9 µM
[55]
  TGI: > 55.9 µM
[56]
  TGI: 45.1 µM
[57]
  TGI: 32.8 µM
